Paper PMC5902495, “Synthesis of Symmetrical Tetrameric Conjugates of the Radiolanthanide Chelator DOTPI for Application in Endoradiotherapy by Means of Click Chemistry” (Frontiers in Chemistry, 2018)

What was measured:
[1] = Stability and protonation constants of Zn^II complexes (pH-potentiometry); type: physicochemical; conditions: 25°C, 0.15 M NaCl
Description: (§1) For determining the protonation constants of DOTPI(Chx)4 and DOTPI three parallel pH-potentiometric titration were made with 0.2 M NaOH in 0.002 M ligand solutions. The stability and protonation constants of the Ca^II and Zn^II complexes formed with DOTPI(Chx)4 and DOTPI ligands have been determined by direct pH-potentiometric titration made at 1:1 and 2:1 metal to ligand concentration ratios. (the concentration of ligands was 0.002 M). For the calculation of the logKML and logKMLHi values, the mL base—pH data used were obtained in the pH range 1.7–12.0.
(§2) For pH measurements and titrations, a Metrohm 785 DMP Titrino titration workstation and a Metrohm-6.0233.100 combined electrode were used. Equilibrium measurements were carried out at a constant ionic strength (0.15 M NaCl) in 6 mL samples at 25°C. The solutions were stirred, and constantly purged with N2. The titrations were performed in a pH range of 1.7–11.7. KH-phthalate (pH = 4.005) and borax (pH = 9.177) buffers were used to calibrate the pH meter. For calculation of [H^+] from measured pH values, the method proposed by Irving et al. was used (Irving et al., [1967]). A 0.01 M HCl solution was titrated with the standardized NaOH solution in the presence of 0.1 M NaCl. Differences between the measured (pHread) and calculated pH (–log[H^+]) values were used to obtain the equilibrium H^+ concentration from the pH values, measured in the titration experiments. For the equilibrium calculations, the stoichiometric water ionic product (pKw) is also needed to calculate [H^+] values in basic conditions. The VNaOH – pHread data pairs of the HCl – NaOH titration obtained in the pH range 10.5–12 have been used to calculate the pKw value (pKw = 13.85). For the calculation of the equilibrium constants the program PSEQUAD (Zekany and Nagypal, [1985]) was used.
(§3) 2. Protonation and complexation equilibria of DOTPI and
(§4) The protonation processes of the DOTPI and DOTPI(Chx)4, ligands have been studied by pH-potentiometry. The protonation constants (logKiH) of ligands are defined according to Eq. (1).
(§5) The stability and protonation constants of DOTPI and DOTPI(Chx)4 complexes with several metal ions were determined by pH-potentiometric and UV/Vis spectrophotometric, methods.
(§6) The stability and protonation constants of the metal complexes formed with the DOTPI and DOTPI(Chx)4, ligands, defined by Eqs. […]
(§7) where i = 1, 2, 3…5. The KML and KMHiL values characterizing the formation of DOTPI and DOTPI(Chx)4 complexes of CaII and ZnII have been calculated from the pH-potentiometric titration data obtained at 1:1 metal to ligand concentration ratios. The protonation constants of the complexes Cu(DOTPI) and Cu(DOTPI( Chx)4) were also determined by pH-potentiometric titrations, made at 1:1 metal to ligand concentration ratio. The pH-potentiometric titrations of DOTPI ligand were also performed at 2:1 metal-to-ligand ratio in order to examine the possible formation of dinuclear CaII-, ZnII-, and CuII-DOTPI complexes.
The stability and protonation constants of the dinuclear complexes formed with the DOTPI […]
where i=1 and 2. In calculating the equilibrium constants, the best fit of the mL base – pH data was obtained by assuming the formation of ML, MHL, MH 2L, MH3L, MH4L, MH5L, M2L, M2LH, and M2LH2 complexes with DOTPI and DOTPI(Chx)4.
(also on this page, place not known: ]H][LH[ ]LH[K 1i iH + − = DOTPI( Chx)4 f ormed ]L][M[ ]ML[K ML = ]H][LMH[ ]LMH[K 1i i LMHi + − = i 3 …5. Ca II Zn II -potentiometric pH - metal -to-ligand Cu II-DOTPI ]M][ML[ ]LM[K 2 LM2 = ]H][LHM[ ]LHM[K 1i2 i2 LHM i2 + − = pH MH 4L,) […]

[2] = 25°C, I = 0.1 M Me4NCl, ref Šimeček et al., [2013], cited from earlier work
[3] = Stability and protonation constants of Ca^II complexes (pH-potentiometry); type: physicochemical; conditions: 25°C, 0.15 M NaCl
Description: as §1, §2, §3, §4, §5, §6
as §7, with “The pH-potentiometric titrations of DOTPI ligand were also performed at 2:1 metal-to-ligand ratio in order to examine the possible formation of dinuclear CaII-, ZnII-, and CuII-DOTPI complexes.” left out

[4] = 25°C, I = 0.1 M Me4NCl; ref Lázár et al., [1991]; cited from earlier work

What does the source list for `O=C(O)CCP(=O)(O)CN1CCN(CP(=O)(O)CCC(=O)O)CCN(CP(=O)(O)CCC(=O)O)CCN(CP(=O)(O)CCC(=O)O)CC1` [DOTPI, 1,4,7,10-tetraazacyclododecane-1,4,7,10-tetrakis[methylene(2-carboxyethylphosphinic acid)]]?
protonation constant Zn2LH [1]: 5.02 (5); protonation constant Zn2LH2 [1]: 4.87 (4); protonation constant ZnH2L [1]: 5.15 (3); protonation constant ZnH3L [1]: 4.40 (4); protonation constant ZnH4L [1]: 4.42 (1); protonation constant ZnHL [1]: 5.65 (3); stability constant of dinuclear complex Zn2L [1]: 3.78 (4); Σlog KiH (total basicity) ([2]; distant carboxylate groups of DOTPI not considered): 24.91; log K1H [2]: 11.58; log K2H [2]: 8.90; log K3H [2]: 5.65; log K4H [2]: 4.98; log K5H [2]: 4.61; log K6H [2]: 4.07; log K7H [2]: 3.12; log K8H [2]: 1.31; protonation constant CaH2L [3]: 5.04 (9); protonation constant CaHL [3]: 6.49 (4); stability constant of dinuclear complex Ca2L [3]: 2.85 (5); logKML, CuL [4]: 23.11
